Reference: ChEMBL document CHEMBL1154314, “Synthesis and antitumor activities of 3-modified 2-methoxyestradiol analogs” (Bioorg Med Chem Lett, 2009)

Legend:
[1] = system: HUVEC; experiment: Antiangiogenic activity in HUVEC assessed as inhibition of cell proliferation; type: functional, cell-based; conditions: Homo sapiens
[2] = system: MDA-MB-231; experiment: Antiproliferative activity against human MDA-MB-231 cells; type: functional, cell-based

Row | IC50 [2] | Structure (SMILES) | IC50 [1]
1 | 0.78 µM | COc1cc2c(cc1NC=O)CC[C@@H]1[C@@H]2CC[C@]2(C)[C@@H](O)CC[C@@H]12 | 0.07 µM
2 | 55.6 µM | COc1cc2c(cc1CO)CC[C@@H]1[C@@H]2CC[C@]2(C)[C@@H](O)CC[C@@H]12 | 28.2 µM
3 | 2.48 µM | COc1cc2c(cc1N)CC[C@@H]1[C@@H]2CC[C@]2(C)[C@@H](O)CC[C@@H]12 | 2.32 µM
4 | 103 µM | COc1cc2c(cc1N(C)C)CC[C@@H]1[C@@H]2CC[C@]2(C)[C@@H](O)CC[C@@H]12 | 2.82 µM
5 | 2.94 µM | COc1cc2c(cc1F)CC[C@@H]1[C@@H]2CC[C@]2(C)[C@@H](O)CC[C@@H]12 | 2.1 µM
6 | 46.9 µM | CCc1cc2c(cc1OC)[C@H]1CC[C@]3(C)[C@@H](O)CC[C@H]3[C@@H]1CC2 | 5.44 µM
7 | > 100 µM | COc1cc2c(cc1C(=O)O)CC[C@@H]1[C@@H]2CC[C@]2(C)[C@@H](O)CC[C@@H]12 | > 100 µM
8 | 26.9 µM | COc1cc2c(cc1Cl)CC[C@@H]1[C@@H]2CC[C@]2(C)[C@@H](O)CC[C@@H]12 | 7.45 µM
9 | 2.36 µM | COc1cc2c(cc1C(N)=O)CC[C@@H]1[C@@H]2CC[C@]2(C)[C@@H](O)CC[C@@H]12 | 2.59 µM
10 | 27.5 µM | COc1cc2c(cc1Br)CC[C@@H]1[C@@H]2CC[C@]2(C)[C@@H](O)CC[C@@H]12 | 9.13 µM
11 | 0.62 µM | COc1cc2c(cc1NC#N)CC[C@@H]1[C@@H]2CC[C@]2(C)[C@@H](O)CC[C@@H]12 | 0.47 µM
12 | 56.2 µM | COc1cc2c(cc1S)CC[C@@H]1[C@@H]2CC[C@]2(C)[C@@H](O)CC[C@@H]12 | 12.9 µM
13 | 8.98 µM | COc1cc2c(cc1C#N)CC[C@@H]1[C@@H]2CC[C@]2(C)[C@@H](O)CC[C@@H]12 | 2.65 µM
14 | 3.95 µM | COc1cc2c(cc1NC(C)=O)CC[C@@H]1[C@@H]2CC[C@]2(C)[C@@H](O)CC[C@@H]12 | 1.65 µM

More lines, now with the values behind:

Row | Structure (SMILES) | IC50 [2] | IC50 [1]
15 | COc1cc2c(cc1OC)[C@H]1CC[C@]3(C)[C@@H](O)CC[C@H]3[C@@H]1CC2 | 43.7 µM | 31.5 µM
16 | COc1cc2c(cc1NC(N)=O)CC[C@@H]1[C@@H]2CC[C@]2(C)[C@@H](O)CC[C@@H]12 | 0.65 µM | 0.59 µM
17 | COC(=O)c1cc2c(cc1OC)[C@H]1CC[C@]3(C)[C@@H](O)CC[C@H]3[C@@H]1CC2 | > 100 µM | > 100 µM
18 | COC(=O)Nc1cc2c(cc1OC)[C@H]1CC[C@]3(C)[C@@H](O)CC[C@H]3[C@@H]1CC2 | 17.6 µM | 5.92 µM
19 | COc1ccc2c(c1)[C@H]1CC[C@]3(C)[C@@H](O)CC[C@H]3[C@@H]1CC2 | 62 µM | 22.1 µM
20 | C=Cc1cc2c(cc1OC)[C@H]1CC[C@]3(C)[C@@H](O)CC[C@H]3[C@@H]1CC2 | 8.93 µM | 1.96 µM
21 | CNC(=O)c1cc2c(cc1OC)[C@H]1CC[C@]3(C)[C@@H](O)CC[C@H]3[C@@H]1CC2 | > 100 µM | > 100 µM
22 | COc1cc2c(cc1C(=O)N(C)C)CC[C@@H]1[C@@H]2CC[C@]2(C)[C@@H](O)CC[C@@H]12 | > 10 µM | > 10 µM
23 | COc1cc2c(cc1OS(=O)(=O)C(F)(F)F)CC[C@@H]1[C@@H]2CC[C@]2(C)[C@@H](O)CC[C@@H]12 | 21.4 µM | 3.27 µM
24 | COc1cc2c(cc1NS(=O)(=O)C(F)(F)F)CC[C@@H]1[C@@H]2CC[C@]2(C)[C@@H](O)CC[C@@H]12 | > 100 µM | 46.2 µM
25 | COc1cc2c(cc1NS(N)(=O)=O)CC[C@@H]1[C@@H]2CC[C@]2(C)[C@@H](O)CC[C@@H]12 | 9.47 µM | 3.88 µM
